Results on 47 compounds are retold here after patent US9550763B2, “Heterocyclic ring and carbocyclic derivative” (Shionogi & Co., Ltd., priority 2012, dated 2017).

This assay addresses human P2X3 receptor (Homo sapiens (Human), UniProt P56373). In words: Evaluation of human P2X3 receptor inhibitory activity (Test Example 1-1, FDSS 3000, 96-well, 50 nM ATP). The assay is classed as cell-based. The settings on record: human P2X3 receptor in C6BU-1 cells; Test Example 1-1 (compounds I-001 to I-300). As for the experimental part:
Stably expressing cell line (C6BU-1 cell transfected with human P2X3 receptor gene (GenBank accession number Y07683) was used. The cells were seeded in a 96-well microtiter plate at a concentration of 8000 cells/well and cultured in the medium (7.0% fetal bovine serum, 7.0% horse serum, 1% antibiotic and antifungal in DMEM) for one day at 37° C. under 5% carbon dioxide atmosphere. The medium was replaced with 4 μM Fluo-3-AM solution (20 mM HEPES, 137 mM NaCl, 5.27 mM KCl, 0.9 mM MgCl2, 1.26 mM CaCl2, 5.6 mM D-glucose, 2.5 mM probenecid, 1% BSA, and 0.08% Pluronic F-127, pH 7.5) and incubated at 37° C. under 5% dioxide carbon atmosphere for one hour. The plate was washed with washing buffer (20 mM HEPES, 137 mM NaCl, 5.27 mM KCl, 0.9 mM MgCl2, 1.26 mM CaCl2, 5.6 mM D-glucose, 2.5 mM probenecid, pH7.5), and each well was added with 40 μL of this buffer. The plate was placed in High-Throughput Screening System. FDSS 3000 (Hamamatsu Photonics K.K.). Measurement of fluorescence intensity by FDSS 3000 was started, and 40 μL of DMSO solutions containing different concentrations of the test compound as prepared by dilution with dilution buffer (20 mM HEPES, 137 mM NaCl, 5.27 mM KCl, 0.9 mM MgCl2, 1.26 mM CaCl2, 5.68 mM D-glucose, 2.5 mM probenecid, 0.1% Pluronic F-127, pH7.5) were dispensed to each well through the built-in automatic dispenser. Five minutes after, 50 nM ATP solution (50 μL) prepared by dilution with the dilution buffer was dispensed through the built-in automatic dispenser, and the measurement of fluorescence intensity was continued for 4 min. For each well, the specific maximum fluorescence intensity was calculated as the ratio of the maximum fluorescence intensity after addition of the ATP solution to the fluorescence intensity at the starting of the measurement. The 50% inhibitory concentration (IC50) was calculated under the assumption that the specific maximum fluorescence intensity without test compound is 0% inhibition and that the specific maximum fluorescence intensity when the dilution buffer was added in place of ATP solution is 100% inhibition, to evaluate the inhibitory activity of the test compound. FDSS software (Hamamatsu Photonics K.K.) was used for calculation of the specific maximum fluorescence intensity. IC50 was calculated using Microsoft Excel (Microsoft Corporation) and XLfit (idbs Ltd.)
The data of the compounds I-001 to I-300 are the results by the method mentioned in Test Example 1-1, and the data of the compounds I-301 to I-483 are the results by the method mentioned in Test Example 1-2.

pIC50: −log10 of the molar value.

Sequence of human P2X3 receptor (P56373 whole entry): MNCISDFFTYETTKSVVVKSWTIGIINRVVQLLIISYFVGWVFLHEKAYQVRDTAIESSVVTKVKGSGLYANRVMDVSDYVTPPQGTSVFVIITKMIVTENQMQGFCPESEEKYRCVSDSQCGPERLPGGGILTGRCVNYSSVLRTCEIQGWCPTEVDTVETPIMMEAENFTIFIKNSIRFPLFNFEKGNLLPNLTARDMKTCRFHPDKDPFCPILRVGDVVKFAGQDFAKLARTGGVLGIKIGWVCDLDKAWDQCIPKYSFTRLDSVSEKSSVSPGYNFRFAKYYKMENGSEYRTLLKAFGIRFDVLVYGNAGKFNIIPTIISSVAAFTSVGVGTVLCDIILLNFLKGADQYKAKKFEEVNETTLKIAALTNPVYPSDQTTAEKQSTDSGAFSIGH

For orientation: pIC50 means the negative decadic logarithm of the IC50, by convention in mol/L. The compound `CCOC(=O)c1cnc(Nc2ccc(Oc3cccc(C(=O)OC)n3)cc2)n(Cc2ccc(Cl)cc2)c1=O` [Compound I-051] gave a negative logarithm of the IC50 (pIC50) of 7.57.

`CCn1c(=O)cc(Nc2ccc(Oc3ccc(C(=O)OC)cc3)cn2)n(Cc2ccc(Cl)cc2)c1=O` [Compound I-052] had a pIC50 of 7.68. The pIC50 values of the last two compounds are within 0.2 log units of each other.

Regarding `CCn1c(=O)cc(Nc2ccc(Oc3cccc(C(=O)O)c3)cn2)n(Cc2ccc(Cl)cc2)c1=O` [Compound I-053], the pIC50 is 7.70.

The compound `CCn1c(=O)cc(Nc2ccc(Oc3ccc(C(=O)O)cc3)cn2)n(Cc2ccc(Cl)cc2)c1=O` [Compound I-054] had a negative logarithm of the IC50 (pIC50) of 7.37.

The compound `CCOC(=O)c1cnc(Nc2ccc(Oc3cccc(C(=O)O)n3)cc2)n(Cc2ccc(Cl)cc2)c1=O` [Compound I-055] showed a pIC50 of 8.70.

In the case of `CCOC(=O)c1cnc(Oc2ccc(Nc3ncc(C(=O)OCC)c(=O)n3Cc3ccc(Cl)cc3)cc2)s1` [Compound I-056], the pIC50 was 7.89. Compared with the last compound, the pIC50 is 0.81 log units lower.

`CCc1oc2ccc(/N=c3\[nH]cc(CN4CCOCC4)c(=O)n3Cc3ccc(Cl)cc3)cc2c1C` [Compound I-057]: the pIC50 is 6.57. This pIC50 lies 1.32 log units lower than the previous one.

Compound `CCc1oc2ccc(/N=c3\[nH]cc(C=NOC)c(=O)n3Cc3ccc(Cl)cc3)cc2c1C` [Compound I-058] gave a pIC50 of 6.65.

For `CCOC(=O)c1cnc(Nc2ccc(Oc3ncc(C(=O)O)s3)cc2)n(Cc2ccc(Cl)cc2)c1=O` [Compound I-059], the pIC50 is 8.22.

Take `CCOC(=O)c1cccc(Oc2ccc(Nc3cc(=O)n(CC)c(=O)n3Cc3ccc(Cl)cc3)cn2)c1` [Compound I-060]: the pIC50 is 6.80.

For the compound `CCn1c(=O)cc(Nc2ccc(Oc3ccc(C(=O)OC)cc3)nc2)n(Cc2ccc(Cl)cc2)c1=O` [Compound I-061], the pIC50 was 7.19.

`CCn1c(=O)cc(Nc2ccc(Oc3cccc(C(=O)O)c3)nc2)n(Cc2ccc(Cl)cc2)c1=O` [Compound I-062] had a pIC50 of 7.31.

In turn, `CCn1c(=O)cc(Nc2ccc(Oc3ccc(C(=O)O)cc3)nc2)n(Cc2ccc(Cl)cc2)c1=O` [Compound I-063] had a pIC50 of 6.37.

Compound `N#Cc1cccc(Oc2ccc(Nc3cc(=O)[nH]c(=O)n3Cc3ccc(Cl)cc3)cc2)n1` [Compound I-064] had a pIC50 of 7.44.

Take `CC(=O)Nc1cnc(Nc2ccc(Oc3ccon3)cc2)n(Cc2ccc(Cl)cc2)c1=O` [Compound I-065]: the negative-log IC50 (pIC50) was 7.00.

Turning to `NC(=O)c1cccc(Oc2ccc(Nc3cc(=O)[nH]c(=O)n3Cc3ccc(Cl)cc3)cc2)n1` [Compound I-066], the pIC50 is 7.09.

For the compound `O=C(O)c1cccc(Oc2ccc(Nc3cc(=O)[nH]c(=O)n3Cc3ccc(Cl)cc3)cc2)n1` [Compound I-067], the pIC50 was 7.47. This pIC50 lies 0.38 log units higher than the previous one.

Consider `CC(=O)Nc1cnc(Nc2ccc(Oc3cccnn3)cc2)n(Cc2ccc(Cl)cc2)c1=O` [Compound I-069], for which the negative logarithm of the IC50 (pIC50) was 7.17.

`CC(=O)Nc1cnc(Nc2ccc(Oc3cccc(F)n3)cc2)n(Cc2ccc(Cl)cc2)c1=O` [Compound I-070] had a negative-log IC50 (pIC50) of 7.55. This pIC50 lies 0.38 log units higher than the previous one.

Take `CCc1oc2ccc(Nc3ncc(NC(C)=O)c(=O)n3Cc3ccc(Cl)cc3)cc2c1C` [Compound I-071]: the pIC50 was 6.77. Against the preceding compound, the pIC50 is 0.78 log units lower.

With `CCOC(=O)Cc1c[nH]/c(=N\c2ccc3oc(CC)c(C)c3c2)n(Cc2ccc(Cl)cc2)c1=O` [Compound I-072], the pIC50 was 6.64.

`CCc1oc2ccc(/N=c3\[nH]cc(C(C)=O)c(=O)n3Cc3ccc(Cl)cc3)cc2c1C` [Compound I-073] gave a pIC50 of 6.85.

The compound `CCc1oc2ccc(/N=c3\[nH]cc(CC(=O)O)c(=O)n3Cc3ccc(Cl)cc3)cc2c1C` [Compound I-074] had a negative logarithm of the IC50 (pIC50) of 6.08.

Regarding `CCn1c(=O)cc(Nc2cnc(Oc3cccc(C(N)=O)c3)cn2)n(Cc2ccc(Cl)cc2)c1=O` [Compound I-076], the pIC50 is 6.36.

For `CCc1oc2ccc(Nc3ncc(NC(=O)C4CCOCC4)c(=O)n3Cc3ccc(Cl)cc3)cc2c1C` [Compound I-077], the negative logarithm of the IC50 (pIC50) was 6.72.

In turn, `CCc1oc2ccc(Nc3ncc(NC(=O)C4CCOCC4)c(=O)n3Cc3cccc(Cl)c3)cc2c1C` [Compound I-078] gave a pIC50 of 7.70.

Turning to `CCc1oc2ccc(Nc3ncc(NC(=O)C4CCOCC4)c(=O)n3Cc3ccc(Cl)c(Cl)c3)cc2c1C` [Compound I-079], the pIC50 was 7.24.

Turning to `CCc1oc2ccc(Nc3ncc(NC(=O)C4CCOCC4)c(=O)n3CC3CCCCC3)cc2c1C` [Compound I-080], the negative-log IC50 (pIC50) was 7.70.

`CCc1oc2ccc(Nc3ncc(NC(=O)C4CCOCC4)c(=O)n3C[C@H]3CC[C@H](C)CC3)cc2c1C` [Compound I-082] gave a pIC50 of 8.05. This pIC50 lies 0.35 log units higher than the previous one.

For `CCn1c(=O)cc(Nc2cnc(Oc3cccc(C(=O)O)c3)cn2)n(Cc2ccc(Cl)cc2)c1=O` [Compound I-083], the negative-log IC50 (pIC50) is 6.77.

For `CCc1oc2ccc(/N=c3\[nH]cc(CC(N)=O)c(=O)n3Cc3ccc(Cl)cc3)cc2c1C` [Compound I-084], the negative logarithm of the IC50 (pIC50) is 6.99.

With `O=C(Nc1cnc(Nc2ccc(Oc3ccon3)cc2)n(Cc2ccc(Cl)cc2)c1=O)C1CCOCC1` [Compound I-086], the pIC50 was 8.70.

With `CCc1c[nH]/c(=N\c2ccc(Oc3ncc(C(=O)O)s3)cc2)n(Cc2ccc(Cl)cc2)c1=O` [Compound I-087], the pIC50 is 7.54.

The compound `CCC(=O)Nc1c[nH]/c(=N\c2ccc(Oc3ccon3)cc2)n(Cc2ccc(Cl)cc2)c1=O` [Compound I-088] showed a pIC50 of 7.31.

Take `CCC(=O)Nc1c[nH]/c(=N\c2ccc(Oc3ccc(CO)nn3)cc2)n(Cc2ccc(Cl)cc2)c1=O` [Compound I-089]: the pIC50 is 7.77.

As for `CCC(=O)Nc1c[nH]/c(=N\c2ccc(Oc3cccc(F)n3)cc2)n(Cc2ccc(Cl)cc2)c1=O` [Compound I-090], the pIC50 is 7.96.

In turn, `CCC(=O)Nc1c[nH]/c(=N\c2ccc(Oc3ccc(C(=O)OC)nc3)cc2)n(Cc2ccc(Cl)cc2)c1=O` [Compound I-091] had a pIC50 of 8.52. Compared with the last compound, the pIC50 is 0.56 log units higher.

`CCC(=O)Nc1c[nH]/c(=N\c2ccc(Oc3ccc(C(=O)O)nc3)cc2)n(Cc2ccc(Cl)cc2)c1=O` [Compound I-092] had a negative logarithm of the IC50 (pIC50) of 7.72.

Consider `CCC(=O)Nc1c[nH]/c(=N\c2ccc(Oc3cccc(C(N)=O)n3)cc2)n(Cc2ccc(Cl)cc2)c1=O` [Compound I-093], for which the pIC50 was 8.05.

`CCC(=O)Nc1c[nH]/c(=N\c2ccc(Oc3cnc(C(=O)O)cn3)cc2)n(Cc2ccc(Cl)cc2)c1=O` [Compound I-094] showed a negative logarithm of the IC50 (pIC50) of 8.00.

In the case of `CCC(=O)Nc1c[nH]/c(=N\c2ccc(Oc3ccc(C(N)=O)nc3)cc2)n(Cc2ccc(Cl)cc2)c1=O` [Compound I-095], the pIC50 was 8.10.

Compound `CCOC(=O)c1c[nH]/c(=N\c2ccc(Oc3ccon3)cc2)n(Cc2ccc(Cl)cc2)c1=O` [Compound I-096] showed a negative logarithm of the IC50 (pIC50) of 7.19.

Compound `CCC(=O)Nc1c[nH]/c(=N\c2ccc(Oc3cnc(C(N)=O)cn3)cc2)n(Cc2ccc(Cl)cc2)c1=O` [Compound I-097] gave a negative-log IC50 (pIC50) of 8.30.

`CCC(=O)Nc1c[nH]/c(=N\c2ccc(Oc3ccnc(C(=O)OC)c3)cc2)n(Cc2ccc(Cl)cc2)c1=O` [Compound I-098] showed a pIC50 of 7.96.

The compound `O=C(O)c1c[nH]/c(=N\c2ccc(Oc3ccon3)cc2)n(Cc2ccc(Cl)cc2)c1=O` [Compound I-099] showed a pIC50 of 6.27.

Take `NC(=O)c1c[nH]/c(=N\c2ccc(Oc3ccon3)cc2)n(Cc2ccc(Cl)cc2)c1=O` [Compound I-100]: the negative logarithm of the IC50 (pIC50) is 7.49.

As for `O=C(NCCO)c1c[nH]/c(=N\c2ccc(Oc3ccon3)cc2)n(Cc2ccc(Cl)cc2)c1=O` [Compound I-101], the negative-log IC50 (pIC50) was 7.15.
